The first assay has as its target Cell division control protein 42 homolog (Homo sapiens, UniProt P60953). Briefly: wild-type Cdc42 nucleotide-binding inhibitors, SAR follow-up, biochemical, bead-based multiplex flow cytometry, oxadiazole series (AID 2037).
Settings: not given
Sequence of Cell division control protein 42 homolog (P60953 whole entry): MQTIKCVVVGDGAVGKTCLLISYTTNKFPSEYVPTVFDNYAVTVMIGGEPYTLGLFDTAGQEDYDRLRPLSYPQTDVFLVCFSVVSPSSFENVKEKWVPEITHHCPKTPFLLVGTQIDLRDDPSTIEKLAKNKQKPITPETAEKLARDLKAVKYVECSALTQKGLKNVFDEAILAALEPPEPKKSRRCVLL
With `COc1ccc(-c2coc(CCC(=O)N3CCN(c4cc(C)ccc4C)CC3)n2)cc1` [1-[4-(2,5-dimethylphenyl)piperazin-1-yl]-3-[4-(4-methoxyphenyl)-1,3-oxazol-2-yl]propan-1-one], it took 2280 nM to reach a half-maximal effect (EC50). This lies in the single-digit micromolar range.

The compound `COc1cccc(-c2noc(CCC(=O)N3CCN(c4cc(C)ccc4C)CC3)n2)c1` had an EC50 of 2770 nM.

Consider `Cc1ccc(C)c(N2CCN(C(=O)CCc3nc(-c4cccc(C(F)(F)F)c4)no3)CC2)c1` [KUC103380N], for which the EC50 was more than 30000 nM.

For the compound `COc1ccc(-c2noc(CCC(=O)N3CCN(c4cccc(Br)c4)CC3)n2)cc1` [1-[4-(3-bromophenyl)-1-piperazinyl]-3-[3-(4-methoxyphenyl)-1,2,4-oxadiazol-5-yl]-1-propanone], the EC50 was more than 30000 nM.

In the case of `COc1ccc(-c2ccc(CCC(=O)N3CCN(c4cc(C)ccc4C)CC3)o2)cc1` [KUC103447N], the EC50 was more than 30000 nM.

For `COc1ccc(-c2noc(CCC(=O)N3CCN(c4ccc(Br)cc4)CC3)n2)cc1` [1-[4-(4-bromophenyl)piperazin-1-yl]-3-[3-(4-methoxyphenyl)-1,2,4-oxadiazol-5-yl]propan-1-one], the EC50 is more than 30000 nM.

`Cc1ccc(C)c(N2CCN(C(=O)CCc3nc(-c4ccccc4F)no3)CC2)c1` [KUC103401N] displayed an EC50 of more than 30000 nM.

The compound `COc1ccc(-c2noc(CCC(=O)N3CCN(c4ccccc4Cl)CC3)n2)cc1` [1-[4-(2-chlorophenyl)piperazin-1-yl]-3-[3-(4-methoxyphenyl)-1,2,4-oxadiazol-5-yl]propan-1-one] returned an EC50 of 805 nM.

For `COc1ccc(-c2noc(CCC(=O)N3CCN(c4cccc(Cl)c4)CC3)n2)cc1`, the EC50 was more than 30000 nM.

As for `COc1ccc(-c2noc(CCC(=O)N3CCN(c4ccc(F)cc4)CC3)n2)cc1` [KUC103398N], the EC50 was more than 30000 nM.

Turning to `COc1ccc(-c2cc(CCC(=O)N3CCN(c4cc(C)ccc4C)CC3)[nH]n2)cc1` [UNM-0000306150], the concentration for a half-maximal effect (EC50) is more than 30000 nM.

With `Cc1ccc(C)c(N2CCN(C(=O)CCc3nc(-c4cccc(Cl)c4)no3)CC2)c1` [UNM-0000306086], the EC50 is 2180 nM.

Compound `Cc1ccc(C)c(N2CCN(C(=O)CCc3nc(-c4ccc(Cl)cc4)no3)CC2)c1` [UNM-0000306083] returned a half-maximal effective concentration (EC50) of 1720 nM.

As for `COc1ccc(-c2noc(CC(=O)N3CCN(c4cc(C)ccc4C)CC3)n2)cc1` [1-[4-(2,5-dimethylphenyl)piperazin-1-yl]-2-[3-(4-methoxyphenyl)-1,2,4-oxadiazol-5-yl]ethanone], the EC50 is more than 30000 nM.

`Cc1ccc(-c2noc(CCC(=O)N3CCN(c4cc(C)ccc4C)CC3)n2)cc1` [1-[4-(2,5-dimethylphenyl)-1-piperazinyl]-3-[3-(4-methylphenyl)-1,2,4-oxadiazol-5-yl]-1-propanone] yielded an EC50 of 4370 nM. In other words, the single-digit micromolar range.

Turning to `COc1ccc(-c2noc(CCCC(=O)N3CCN(c4cc(C)ccc4C)CC3)n2)cc1` [KUC103353N], the EC50 turned out to be 6210 nM.

Consider `Cc1cccc(-c2noc(CCC(=O)N3CCN(c4cc(C)ccc4C)CC3)n2)c1` [1-[4-(2,5-dimethylphenyl)piperazin-1-yl]-3-[3-(3-methylphenyl)-1,2,4-oxadiazol-5-yl]propan-1-one], for which the midpoint of the response, the EC50, lay at 1020 nM.

As to `COc1ccc(-c2ccc(CCC(=O)N3CCN(c4cc(C)ccc4C)CC3)s2)cc1`, the EC50 was more than 30000 nM.

`COc1ccc(-c2noc(CCCCC(=O)N3CCN(c4cc(C)ccc4C)CC3)n2)cc1` [1-[4-(2,5-dimethylphenyl)-1-piperazinyl]-5-[3-(4-methoxyphenyl)-1,2,4-oxadiazol-5-yl]-1-pentanone] came in with an EC50 of more than 30000 nM.

In turn, `COc1ccc(-c2noc(CCC(=O)N3CCN(c4ccccc4C)CC3)n2)cc1` gave an EC50 of 1710 nM.

`Cc1ccc(C)c(N2CCN(C(=O)CCc3nc(-c4ccccc4Cl)no3)CC2)c1` [3-[3-(2-chlorophenyl)-1,2,4-oxadiazol-5-yl]-1-[4-(2,5-dimethylphenyl)-1-piperazinyl]-1-propanone] returned a 50% effective concentration (EC50) of more than 30000 nM.

`COc1ccc(-c2noc(CCC(=O)N3CCN(c4ccc(C(F)(F)F)cc4)CC3)n2)cc1` [3-[3-(4-methoxyphenyl)-1,2,4-oxadiazol-5-yl]-1-[4-[4-(trifluoromethyl)phenyl]piperazin-1-yl]propan-1-one] came in with an EC50 of more than 30000 nM.

Compound `COc1ccc(-c2cc(CCC(=O)N3CCN(c4cc(C)ccc4C)CC3)on2)cc1` [1-[4-(2,5-dimethylphenyl)piperazin-1-yl]-3-[3-(4-methoxyphenyl)-1,2-oxazol-5-yl]propan-1-one] returned a half-maximal effective concentration (EC50) of more than 30000 nM.

Consider `COc1ccc(-c2noc(CCC(=O)N3CCN(c4ccccc4)CC3)n2)cc1` [3-[3-(4-methoxyphenyl)-1,2,4-oxadiazol-5-yl]-1-(4-phenylpiperazin-1-yl)propan-1-one], for which the EC50 is more than 30000 nM.

As to `COc1ccc(-c2ccc(CCC(=O)N3CCN(c4cc(C)ccc4C)CC3)[nH]2)cc1` [1-[4-(2,5-dimethylphenyl)piperazin-1-yl]-3-[5-(4-methoxyphenyl)-1H-pyrrol-2-yl]propan-1-one], the EC50 was more than 30000 nM.

The compound `COc1ccc(-c2noc(CCC(=O)N3CCN(c4ccccc4OC)CC3)n2)cc1` [3-[3-(4-methoxyphenyl)-1,2,4-oxadiazol-5-yl]-1-[4-(2-methoxyphenyl)-1-piperazinyl]-1-propanone] yielded an EC50 of more than 30000 nM.

Regarding `Cc1ccc(C)c(N2CCN(C(=O)CCc3nc(-c4cccc(F)c4)no3)CC2)c1` [KUC103366N], the EC50 is more than 30000 nM.

Take `COc1ccc(-c2noc(CCC(=O)N3CCN(c4cccc(F)c4)CC3)n2)cc1` [1-[4-(3-fluorophenyl)piperazin-1-yl]-3-[3-(4-methoxyphenyl)-1,2,4-oxadiazol-5-yl]propan-1-one]: the 50% effective concentration (EC50) was more than 30000 nM.

For the compound `COc1ccc(-c2noc(CCC(=O)N3CCN(c4ccccc4Br)CC3)n2)cc1` [KUC103370N], a half-maximal effect (EC50) was put at 2310 nM.

Turning to `COc1ccc(-c2noc(CCC(=O)N3CCN(c4cccc(C)c4)CC3)n2)cc1` [UNM-0000306125], the EC50 was more than 30000 nM.

The compound `Cc1ccc(C)c(N2CCN(C(=O)CCc3nc(-c4ccccc4C(F)(F)F)no3)CC2)c1` returned an EC50 of 4950 nM. That is a single-digit micromolar value.

As to `COc1ccc(-c2noc(CCC(=O)N3CCN(c4ccc(Cl)cc4)CC3)n2)cc1` [UNM-0000306121], the EC50 was more than 30000 nM.

In the case of `COc1ccc(-c2noc(CCC(=O)N3CCC(c4cc(C)ccc4C)CC3)n2)cc1` [KUC103432N], the EC50 worked out at 1420 nM.

On to `Cc1ccc(C)c(N2CCN(C(=O)CCc3nc(-c4ccccc4C)no3)CC2)c1`, for which the EC50 is more than 30000 nM.

Compound `Cc1ccc(C)c(N2CCN(C(=O)CCc3nc(-c4ccccc4)no3)CC2)c1` [UNM-0000306070] showed a concentration for a half-maximal effect (EC50) of 4000 nM. That is a single-digit micromolar value.

Still in this assay, the particulars now being: inactive by the depositor's call.
In turn, `Cc1ccc(C)c(N2CCN(C(=O)CCc3nc(-c4ccccc4Br)no3)CC2)c1` [3-[3-(2-bromophenyl)-1,2,4-oxadiazol-5-yl]-1-[4-(2,5-dimethylphenyl)-1-piperazinyl]-1-propanone] came in with a 50% effective concentration (EC50) of 2340 nM. This lies in the single-digit micromolar range.

With `COc1ccc(-c2noc(CCC(=O)N3CCN(c4ccccc4F)CC3)n2)cc1` [1-[4-(2-fluorophenyl)piperazin-1-yl]-3-[3-(4-methoxyphenyl)-1,2,4-oxadiazol-5-yl]propan-1-one], the EC50 stood at 655 nM.

`Cc1ccc(C)c(N2CCN(C(=O)CCc3nc(-c4cccc(Br)c4)no3)CC2)c1` [KUC103367N] displayed an EC50 of 2140 nM.

`COc1ccc(-c2noc(CCC(=O)N3CCN(c4cc(C)ccc4C)CC3)n2)cc1` [1-[4-(2,5-dimethylphenyl)-1-piperazinyl]-3-[3-(4-methoxyphenyl)-1,2,4-oxadiazol-5-yl]-1-propanone] returned an EC50 of 2740 nM.

`COc1ccc(-c2noc(CCC(=O)N3CCN(c4cccc(OC)c4)CC3)n2)cc1` [KUC103349N] displayed an EC50 of 12100 nM.

For `COc1ccc(-c2noc(CCC(=O)N3CCN(c4ccc(C)cc4)CC3)n2)cc1` [3-[3-(4-methoxyphenyl)-1,2,4-oxadiazol-5-yl]-1-[4-(4-methylphenyl)piperazin-1-yl]propan-1-one], a half-maximal effect (EC50) was put at 566 nM. Against the preceding compound, the EC50 is about 21-fold lower.

Take `Cc1ccc(C)c(N2CCN(C(=O)CCc3nc(-c4ccc(Br)cc4)no3)CC2)c1` [UNM-0000306072]: the midpoint of the response, the EC50, lay at 1620 nM.

Compound `COc1ccc(-c2cccc(CCC(=O)N3CCN(c4cc(C)ccc4C)CC3)c2)cc1` [UNM-0000306127] showed an EC50 of 3670 nM.

Compound `COc1ccc(-c2noc(CCC(=O)N3CCN(c4cccc(C)c4C)CC3)n2)cc1` [1-[4-(2,3-dimethylphenyl)-1-piperazinyl]-3-[3-(4-methoxyphenyl)-1,2,4-oxadiazol-5-yl]-1-propanone] returned an EC50 of 1150 nM.

`COc1ccc(-c2noc(CCC(=O)N3CCN(c4ccccc4C(F)(F)F)CC3)n2)cc1` [UNM-0000306082] returned an EC50 of 1980 nM. Against the preceding compound, the EC50 is about 1.7-fold higher.

`COc1ccccc1-c1noc(CCC(=O)N2CCN(c3cc(C)ccc3C)CC2)n1` [UNM-0000306071] gave an EC50 of 1540 nM.

`Cc1ccc(C)c(N2CCN(C(=O)CCc3nc(-c4ccc(N(C)C)cc4)no3)CC2)c1` [KUC103409N]: the EC50 was 1190 nM.

On to `Cc1ccc(C)c(N2CCN(C(=O)CCc3nc(-c4ccc(F)cc4)no3)CC2)c1` [KUC103364N], for which the 50% effective concentration (EC50) came out at 360 nM.

`Cc1ccc(C)c(N2CCN(C(=O)CCc3nc(-c4ccc(C(F)(F)F)cc4)no3)CC2)c1` [1-[4-(2,5-dimethylphenyl)-1-piperazinyl]-3-[3-[4-(trifluoromethyl)phenyl]-1,2,4-oxadiazol-5-yl]-1-propanone]: the EC50 amounted to 3210 nM.

`COc1ccc(-c2noc(CCC(=O)N3CCN(c4ccc(OC)cc4)CC3)n2)cc1` [3-[3-(4-methoxyphenyl)-1,2,4-oxadiazol-5-yl]-1-[4-(4-methoxyphenyl)piperazin-1-yl]propan-1-one] had a 50% effective concentration (EC50) of 450 nM. Compared with the last compound, the EC50 is about 7.1-fold lower.

The compound `COc1ccc(-c2noc(CCC(=O)N3CCN(c4cccc(C(F)(F)F)c4)CC3)n2)cc1` [1-{3-[3-(4-methoxyphenyl)-1,2,4-oxadiazol-5-yl]propanoyl}-4-[3-(trifluoromethyl)phenyl]piperazine] came in with an EC50 of 1920 nM. Against the preceding compound, the EC50 is about 4.3-fold higher.

Source of the values: BindingDB's records for doi:10.7270/Q2NK3CFW (Nmmlsc, 2009).
